“Also recorded” adds a separate entry of the source.
Legend:
[1] = test system: HCV; assay: Quantitative analysis of intracellular HCV-RNA (Cobas Ampliprep TaqMan); format: cell-based, Hepatitis C virus; details: PBMCs and HepG-2 cells, 72 h; SOV in PBMCs only
Protocol: (§1) PBMCs were obtained by Ficoll-Hypaque density gradient centrifugation method as described previously. In brief, the blood samples from healthy volunteers were diluted with equal volume of PBS, carefully layered on Ficoll-Hypaque, and centrifuged at 2000 rpm, 25° C. for 30 min. Then the undisturbed PBMCs layer (interface) was carefully transferred out, washed with 40 ml RPMI-1640 medium, and centrifuged at 1650 rpm for 10 min. Finally, the supernatant was removed and the cells were suspended in 5 ml of RPMI-1640 medium containing 10% FBS and counted using trypan blue stain.
(§2) HepG-2 cells were grown in RPMI-1640 medium (HyClone) supplemented with 10% heat-inactivated FBS.
(§3) Serum samples were obtained from HCV and HBV infected […] patients […] after agreement by the ethics committee. The HCV and HBV samples were positive for genotype 4a and D, respectively. The infected patients were neither under treatment prior to the study nor co-infected. The sera were kept at −80° C. until use. […]
(§4) SOV at the concentration of 4 mg was incubated only with HCV or HBV-infected PBMCs due to its potent anti-cancer effect. […] Then the HCV-RNA and HBV-DNA within these cells were quantified using the fully automated Cobas Ampliprep TaqMan Analyzer (CAP-CTM). This technique is one of the most recent techniques that used for diagnosis of viral hepatitis quantitatively. […]

[2] = test system: HCV; assay: Qualitative screening for HCV (+) strand RNA by RT-nested PCR in infected PBMCs and HepG-2 cells; format: cell-based, Hepatitis C virus; details: HCV-infected PBMCs and HepG-2 cells, 72 h; RJ 0.2 and 1 mg, PFs 1 mg, MRJPs 250 μg, SOV 4 mg (PBMCs only)
Protocol: as §1, §2, §3
After cellular infection, the infected medium was replaced with a fresh RPMI-1640 medium containing 10% FBS for positive control wells. […] The HCV (+) strand was detected by reverse transcription-nested polymerase chain reaction (RT-nested PCR) using the Ready-To-Go RT-PCR beads (Amersham Pharmacia Biotech, Piscataway, N.J., USA) following the instructions. […]

[3] = test system: HBV; assay: Quantitative analysis of intracellular HBV-DNA (Cobas Ampliprep TaqMan); format: cell-based, hepatitis B virus; details: PBMCs and HepG-2 cells, 72 h; SOV in PBMCs only
Protocol: as §1, §2, §3, §4

[4] = Acute toxicity (Karber's method); format: in vivo, male Albino rats
Protocol: Karber's method was used to study the acute toxicity effect of RJ in comparison with SOV using male Albino rats and the median lethal dosage (LD50) was calculated.
Fifty-five male Albino rats (80-120 g) were purchased from MISR University for Science and Technology (animal welfare assurance number A5865-01). Animals were housed in metal cages and allowed free access to a standard commercial diet and tap water. Rats were kept under conventional conditions of temperature, humidity and twelve hours light/dark cycle. All rats were acclimatized to the laboratory environment for one week prior to handling and were observed daily for abnormal signs. Handling of animals complied with the international guide for the care and use of laboratory animals (National Research Council, 1996).
Animals were divided into eleven groups (five animals in each) starting from group I to group X beside the control (received only water as the vehicle). Groups from (I) to (V) were administered RJ intraperitoneally, while groups from (VI) to (X) were orally received SOV using the gavage tube. RJ and SOV were given to the animals at various doses (140, 350, 700, 2500 and 5000 mg/kg bw), one dose for each group of animals (group I and VI received the lowest dose).
All animals were left for 24 h after RJ or SOV administration, and then the number of mortality in each group was recorded for calculation of the LD50 value. Also, the weights of animals in each group were recorded before sacrificing by decapitation. Blood samples were collected in heparin tubes by cardiac puncture for assessment of the erythrocytes, hematocrit (HCT), hematimetric indices, hemoglobin (Hb), platelets, and leukocytes (full and differential counts). In addition, ALT and AST, total proteins, albumin, urea, creatinine, sodium, potassium, triglycerides (TG) and cholesterol were determined using available commercial kits (RAM, Egypt). The vital organs including liver, lung, kidney, and spleen were carefully excised, weighed and examined.

[5] = test system: hepatocytes; assay: In vitro assessment of liver fibrosis: CCl4-induced fibrosis in hepatocytes; format: cell-based, Albino rats
Protocol: Hepatocytes were isolated from the liver of two male Albino rats 1 week of age. Rats were anesthetized, then liver was dissected, washed and incubated for 15 min with 10× penicillin and streptomycin. Afterward, the liver was washed using PBS, minced and incubated for 30 min with 3 U/mL of collagenase I with gentle shaking to obtain the cell suspension. The solution was centrifuged for […] at 1000 rpm and the pellet (hepatocytes) was washed, suspended in William's E medium containing 10% FBS and incubated at […] in CO2 incubator. After 90% cell confluent, hepatocytes were passaged with trypsin-EDTA. Then cells were stained with trypan blue, checked for viability and counted using the phase contrast inverted microscope (Olympus IX 81, Tokyo, Japan).
For induction of fibrosis, hepatocytes were incubated with various concentrations (0.13-1.30 mM) of CCl4 for 48 h. At the end of the incubation period, the cell viability was assessed and the IC50 value (half maximal inhibitory concentration of CCl4 to the hepatocytes growth) was calculated by the GraphPad Instat software version 3. This value was used for in vitro induction of fibrosis in hepatocytes (FM). After induction, Fb1 was incubated with the safe concentration of each of the studied compounds and incubated for 72 h at 5% CO2 and 37° C. The normal cells and the untreated Fb1 (Fb) were involved as negative and positive control cells, respectively.
At the end of the incubation period, media were collected and used in the assessment of the hepatocyte damage indices. However, cells were examined morphologically for identification of apoptosis.
Alanine and aspartate aminotransferases (ALT and AST), and albumin were determined using available commercial kits (RAM, Egypt). TNF-α (ELISA kit, RayBiotech, USA) and collagen IV (ELISA kit, Kamiya Biomedical) were determined following the manufacturer's instructions. Nitric oxide (NO) level was assessed by measurement of the nitrite using the Griess reaction, which produced colored azo dye with a maximum absorbance at 490 nm. Hydroxyproline content in the medium was measured using chloramines T and […] solutions. The absorbance of the produced color was read spectrophotometrically at 560 nm and the concentration was determined from the hydroxyproline calibration curve.
Apoptosis was investigated by double staining cells after washing with PBS with 100 μg/mL of ethidium bromide (EB) and acridine orange (AO) as described previously and then visualized under the fluorescent phase contrast microscope.

[6] = test system: HepG-2 cell line; assay: Anti-cancer assay (MTT); format: cell-based, human; details: HepG-2 cells, 72 h
Protocol: The cytotoxic effect of RJ and its isolated PFs against HepG-2 cell line were evaluated. The cell viability was determined by MTT assay to investigate the cytotoxicity. Cells (3×10^3/well) were seeded in 96-well plate and left to attach for overnight. Serial concentrations (6.25-100 μM) of each of the tested compounds were added to the attached cells and incubated for 72 h at 37° C. in an atmosphere of 5% CO2 and the untreated cells were included as negative control. Then, 20 μl of MTT solution (0.5 mg/ml) was added to each well and the plate was incubated at 37° C. and 5% CO2 for 4 h. The medium with MTT was replaced by 150 μl of DMSO and the absorbance of the produced color was read at 570 nm by the microplate reader. The concentration of each of the studied compounds that inhibit the cancer cell growth by 50% (IC50 values) was determined from the dose-response curves. Additionally, the morphological changes of the tumor cells were examined using the phase-contrast microscope.

[7] = SOV oral 2500 and 5000 mg/kg bw

CC(C)OC(=O)[C@H](C)N[P@](=O)(OC[C@H]1O[C@@H](n2ccc(=O)[nH]c2=O)[C@](C)(F)[C@@H]1O)Oc1ccccc1 [SOV, Sofosbuvir]
efficacy against HCV (intracellular HCV) [1]: less anti-HCV
anti-HCV effect (HCV (+) strand RNA, RT-nested PCR) [2]: anti-HCV effect
efficacy against HBV / activity of HBV (intracellular HBV) [3]: increases the activity of HBV
body weights ([4]; 24 h, all doses, versus control group): didn't cause any significant change; also recorded: no significant change
hematological parameters ([4]; 24 h after administration): Slight changes
serum urea level ([4]; SOV 350-5000 mg/kg bw): significant elevation
potassium level ([4]; SOV 2500, 5000 mg/kg bw): depleted
serum sodium level ([4]; SOV 2500, 5000 mg/kg bw): elevated
ALT activity ([4]; SOV 2500 and 5000 mg/kg bw): didn't affect
activity of AST ([4]; SOV 2500 and 5000 mg/kg bw): significantly elevated
serum level of albumin ([4]; SOV 2500 and 5000 mg/kg bw): significantly reduce
total proteins level ([4]; SOV 2500 and 5000 mg/kg bw): didn't affect
TG level ([4]; SOV nearly at all doses): significantly increased
cholesterol level ([4]; SOV nearly at all doses): significantly increased
% organ-body weight ratio, spleen ([4]; SOV oral 350 to 5000 mg/kg bw): enlargement
% organ-body weight ratio, liver [4, 7]: significant enlargement
% organ-body weight ratio, lung [4, 7]: significant enlargement
% organ-body weight ratio, kidney ([4]; SOV oral all given doses (140-5000 mg/kg bw)): significant enlargement
mortality ([4]; after 24 h, all studied doses (140-5000 mg/kg bw), RJ intraperitoneal, SOV oral): no mortality
toxic dose ([4]; rats, all the studied doses): ≥ 140 mg/kg
toxicity on vital organs ([4]; rats, liver, lung, kidney, spleen): highly toxic effects on kidney, spleen and lung and less toxicity on the liver; also recorded: highly toxic
collagen and hydroxyproline levels ([5]; CCl4-induced fibrosis in hepatocytes (Fb1)): suppressive effect
antifibrotic / therapeutic effect overall ([5]; CCl4-induced fibrosis in hepatocytes, compared with SM and SOV): less antifibrotic activities
inflammatory mediators' level (NO and TNF-α) ([5]; fibrotic cells (Fb1)): anti-inflammatory effect
hepatocytes morphology / apoptosis (acridine orange/ethidium bromide staining) ([5]; fibrotic hepatocytes (Fb1), 72 h treatment, 200 μg/mL): less potency
cytotoxic (anticancer) effect [6]: potent activity
cytotoxic (anticancer) effect ([6]; listed as Sovaldi): more potent anticancer effect than the RJ proteins

B1: MRJP2: major royal jelly protein 2, bound protein purified from PF50 by CM-Sephadex ion-exchange chromatography (protein, UniProt O77061 18-452, looked up)
Major royal jelly protein 2: AIVRENSPRNLEKSLNVIHEWKYFDYDFGSEERRQAAIQSGEYDHTKNYPFDVDQWRDKTFVTILRYDGVPSTLNVISGKTGKGGRLLKPYPDWSFAEFKDCSKIVSAFKIAIDKFDRLWVLDSGLVNRTVPVCAPKLHVFDLKTSNHLKQIEIPHDIAVNATTGKGGLVSLAVQAIDLANTLVYMADHKGDALIVYQNADDSFHRLTSNTFDYDPRYAKMTIDGESFTLKNGICGMALSPVTNNLYYSPLASHGLYYVNTAPFMKSQFGENNVQYQGSEDILNTQSLAKAVSKNGVLFVGLVGNSAVGCWNEHQSLQRQNLEMVAQNDRTLQMIAGMKIKEELPHFVGSNKPVKDEYMLVLSNRMQKIVNDDFNFDDVNFRILGANVKELIRNTHCVNNNQNDNIQNTNNQNDNNQKNNKKNANNQKNNNQNDN
anti-HCV effect (HCV (+) strand RNA, RT-nested PCR) [2]: anti-HCV effect
inflammatory mediators' level (NO and TNF-α) ([5]; fibrotic cells (Fb1)): Normalization
liver function parameters (ALT, AST, albumin) in medium ([5]; fibrotic cells (Fb1)): Improvement
cytotoxic (anticancer) effect [6]: nearly as potent as SOY and 5-FU
